Square brackets hold non-standard residues; d marks the D form. Peptide text beside a SMILES is read from it. Gly(N(CH2)2(3-indolyl)) = O=C(O)CNCCc1c[nH]c2ccccc12; Nspe = C[C@H](NCC(=O)O)c1ccccc1; Nlys = NCCCCNCC(=O)O
Key:
[1] = S9 fraction stability assay; assay type: in vitro ADME; settings: NADPH, 100 mM Tris-HCl pH 7.4, […] MgCl2, 37 °C, 24 h incubation, HPLC or LC-MS, compared to pexiganan
Protocol: 200 μL NPN dye was added to wells of a 96 well plate to produce a final concentration of 10 μM, and the background fluorescence was recorded (λex = 350 nm, λem = 420 nm). Aliquots of peptoids were added to the well, and fluorescence was recorded as a function of time until there was no further increase in fluorescence. Increases of the permeability of the outer membrane after the addition of peptoids was reflected by increased fluorescence values as a result of NPN incorporation into the membrane.
The permeability of the inner membrane was determined using E. coli ML-35 cells […]
The intact bacterial inner membrane is non-permeable to o-nitrophenyl-β-D-galactopyranoside (OPNG), a chromogenic substrate of the β-galactosidase.
Following damage to the inner membrane, OPNG enters the cells and is metabolized by β-galactosidase creating a chromogenic […]. […] The hydrolysis of ONPG and generation of o-nitrophenol over time were monitored as absorbance change at 405 nm following the addition of peptoids.
The resistance of peptoids against metabolic enzyme degradation was measured by an S9 fraction assay. […] Quenched samples were centrifuged for 5 minutes at 1200 rpm and analyzed by analytical HPLC or LC-MS.
Protein extraction and quantification using Bradford assay […]

E. coli ATCC 25922 = experiment: Killing kinetics; assay type: cell-based; settings: 4 × MIC, E. coli ATCC 25922, MHB2, 37 °C, CFU counting, triplicates
Protocol: structure of peptoids. SAXS data on peptoids in aqueous environment at different peptoid concentrations (indicated in legends), plotted together with best fit. a) 11 b) 29.
14. In vitro biological assays
The kinetics of antimicrobial activity against E. coli (ATCC 25922) were assessed at a […]
Briefly, an overnight culture of bacteria was diluted at mid log-phase bacteria (2–5 × 10^5 cfu/mL) and incubated with peptoid with desired concentration in MHB2. The bacterial suspension was added to a 96-well polypropylene u- bottomed plate containing the peptoid. The plate was incubated without shaking at 37 °C for 4 h. Samples (20 μl) were taken at time 0.5, 1, 2 and 4 h and diluted in ice PBS buffer from which 100 μl was plated on LB agar plates. The plates were incubated for 18–24 hours at 37 °C and colony forming units (CFU) were counted. The experiment was conducted triplicates, and a curve was plotted between CFU and time (h).
The ability of peptoids to increase the permeability of the outer membrane of Gram-negative bacteria was determined by measuring the incorporation of the NPN fluorescent dye into the outer membrane of E. coli ATCC 25922. Bacterial cells were suspended to a final concentration of OD600 = 0.05 in 5 mM HEPES buffer, pH 7.2, containing 5 mM KCN. Then […]
(1 picture or pasted object on this page, not shown here)

[2] = Protein and DNA aggregation assay (thioflavin T); assay type: biochemical; settings: 29 25 µM, protein 500 µg mL^−1, gDNA 50 ng mL^−1, Th T 25 µM, 37 °C 1 h, ex 450 / em 485 nm
Protocol: bacteria were pelleted at 4,000 rpm for 10 minutes at 8 °C. The supernatant was removed and the pellet was suspended in 2 mL of PBS buffer. This suspension was transferred to a 15 mL conical tube and cooled on ice. The culture was sonicated for 5 sec and cooled again for 55 sec. This cycle was repeated 15 times. The lysate was centrifuged at 4,000 rpm for 20 minutes at 8 °C. The supernatant was transferred into a fresh 2 mL Eppendorf tube and stored at -80 °C. Protein quantification was performed using TaKaRa Bradford Protein Assay Kit according to the manufacturer’s instructions.
DNA extraction and quantification
DNA extraction was performed using TaKaRa MiniBEST Bacteria Genomic DNA Extraction Kit Ver. 3.0 according to the manufacturer’s instructions.
Protein and DNA aggregation assay
The flocculation of the proteins and DNA caused by peptoids was confirmed by the change in the fluorescent intensity of thioflavin T (Th T) that detects aggregated proteins and double stranded DNA. The appropriate combination of 500 μg/mL of protein solution, 50 ng/mL of genomic DNA, 25 μM of Th T, and 25 μM of peptoid 29 were added into a black 96-well plate in triplicate and incubated at 37 °C for an hour. After incubation, the fluorescence was measured using a microplate reader (excitation wavelength = 450 nm, emission wavelength = […]
[1] […]

C[C@@H](c1ccccc1)N(CC(N)=O)C(=O)CN(C(=O)CN(CCCCN)C(=O)CN(C(=O)CN(C(=O)CN(CCCCN)C(=O)CN(C(=O)CN(C(=O)CN(CCCCN)C(=O)CN(C(=O)CN(C(=O)CNCCCCN)[C@@H](C)c1ccccc1)[C@@H](C)c1ccccc1)[C@@H](C)c1ccccc1)[C@@H](C)c1ccccc1)[C@@H](C)c1ccccc1)[C@@H](C)c1ccccc1)[C@@H](C)c1ccccc1 [peptoid 1, reference compound] (H-[Nlys][Nspe][Nspe][Nlys][Nspe][Nspe][Nlys][Nspe][Nspe][Nlys][Nspe][Nspe]-NH2)
stability in human liver S9 fraction [1]: superior stability

C[C@@H](c1ccccc1)N(CC(=O)N(CCCCN)CC(=O)N(CCc1c[nH]c2ccccc12)CC(=O)N(CCc1c[nH]c2ccccc12)CC(N)=O)C(=O)CN(CCCCN)C(=O)CN(CCCCN)C(=O)CN(C(=O)CN(C(=O)CN(CCCCN)C(=O)CN(C(=O)CN(C(=O)CNCCCCN)[C@@H](C)c1ccccc1)[C@@H](C)c1ccccc1)[C@@H](C)c1ccccc1)[C@@H](C)c1ccccc1 [peptoid 29] (H-[Nlys][Nspe][Nspe][Nlys][Nspe][Nspe][Nlys][Nlys][Nspe][Nlys][Gly(N(CH2)2(3-indolyl))][Gly(N(CH2)2(3-indolyl))]-NH2)
time to complete eradication of bacteria (E. coli ATCC 25922): 4 h
stability in human liver S9 fraction [1]: superior stability
Th T fluorescence of protein and protein/gDNA samples [2]: significant increases in fluorescent emission
